Results from patent publication US20170107407A1, “ADHESIVE COMPOSITION AND POLARIZING PLATE COMPRISING SAME” (DONGWOO FINE-CHEM CO., LTD., priority 2014, published 2017).

Assay: Evaluation of solubility in methyl ethyl ketone
Conditions: 1 g compound in 100 g methyl ethyl ketone, shaken 1 hour, left 24 hours at room temperature, visual
Protocol: Each compound (1 g) listed in Table 1 and methyl ethyl ketone (MEK, 100 g) were added to a 250 ml bottle and covered with a cap to inhibit the volatilization of the solvent.

**Q.** With `CCCCOCCOCC(=O)[O-].[Na+]` [Formula C] as the compound, how does the Solubility read?
**A.** Its Solubility is “∘”.

**Q.** For `CCOCCOCCOCC(=O)[O-].[Na+]` [Formula B], which Solubility is on record?
**A.** The Solubility was “∘”.

**Q.** For `CCOCCOCCOCC(=O)[O-].[Li+]` [Formula A], which Solubility is on record?
**A.** The Solubility was “∘”.
